These results are taken from US10907159B2, “Methods of treating cancer by inhibition of DNA repair proteins using antisense based therapies” (SARISSA INC., priority 2015, dated 2021).

“Also recorded” adds a separate entry of the source. Like-named read-outs stand apart in the source and are kept apart here. d = 2'-deoxy (DNA); m = 2'-O-methyl

Assay type in all cases: cell-based, human
The subject of series [1] is A549b cells. As to the kind of experiment: Proliferation of A549b cells after OLIGO/siRNA transfection (cell counting). Particulars: for relative proliferation: FIG. 12. As for the experimental part:
Cultured cell lines were maintained in minimum essential medium a with nucleosides plus 10% fetal bovine serum and penicillin (50 units/mL)/streptomycin (50 mg/L) (growth medium). Cultures were incubated in a humidified atmosphere of 5% CO2 at 37° C. Cultured cell lines were maintained and cytotoxicity assays conducted as described previously (3). Rapidly proliferating cells were utilized for establishing cultures of experimental cells, which were allowed to plate overnight in 25-cm^2 flasks prior to manipulation. An established cell line of non-small-cell lung carcinoma (NSCLC), A549b, which was propagated by serial dilution from a single cell of an A549 parent cell line, was used for the establishment of antisense activity of oligonucleotides. This cell line proliferates with a mean generation time of approximately 20 hours, and is capable of forming tumours in immunodeficient mice with a take rate of greater than 90%. Therefore, this cell line is a good model system that can be used in both in vitro and in vivo experiments to test the activity of OLIGOs.
OLIGOs were introduced into cells with the use of Lipofectamine 2000 (LFA2K) (Invitrogen, Burlington, Ontario, Canada). OLIGOs were mixed with LFA2K at a ratio of 0.2 μg/ml per 10 nM OLIGO. The mixture was prepared at 11× the final concentration to which cells were exposed, so that 200 μL was added to 2 mL of medium in which cells were plated. As controls, cells were exposed to medium alone (no treatment), LFA2K alone at concentrations equivalent to those used in combination with OLIGOs (in some experiments only the maximum LFA2K concentration was used as a control), or OLIGO having no complementarity with any human mRNA. The OLIGO/LFA2K mixtures were then incubated at room temperature for 20 minutes, according to instructions supplied with the LFA2K, followed by addition of the OLIGOs to the cell medium. The OLIGO/LFA2K mix was then incubated (37° C.) on the cells for 4 hours, after which a second volume of medium was added. Cells were then incubated for 20 hours. Following this incubation, the OLIGO-containing medium was replaced with drug-free medium (i.e. medium without OLIGOs) and the cells were incubated for an additional 4 days. Following the 4-day incubation, the proliferation of the treated cells (fold-increase in cell number) was calculated as a percentage of that of control cells. Cell numbers were enumerated on an electronic particle counter (Beckman Coulter, Mississauga, ON). For the purpose of determining the anti-proliferative effect of antisense OLIGOs, the proliferation of cells treated with antisense OLIGOs was calculated as a percent of that of cells treated with an equivalent concentration of non-complementary control OLIGO (in this case OLIGO 32) mixed with an equivalent amount of LFA2K.
OLIGO-containing medium was removed and replaced with fresh medium. Cells were incubated for 4 days, at which time cell number was counted. Proliferation was calculated as a percent of non-targeting OLIGO-treated controls.
Cells were incubated for 4 days, at which time cell number was counted. Proliferation was calculated as a percent of controls.

A further series deals with BRCA2 mRNA. As to the kind of experiment: RT-qPCR of BRCA2 mRNA in A549 cells after OLIGO transfection. The following applies: 20 nM OLIGO, 24 hours post-transfection; FIG. 16. As for the experimental part: (§1) Briefly, A549 cells seeded at a density of 2.0×10^5 per flask were transfected with 20 nM of OLIGO specific for each target or control OLIGO using Lipofectamine 2000 as the transfection reagent. Twenty four hours post-transfection mRNA was extracted and reverse transcribed into cDNA. RT-qPCR was performed for target mRNA levels using TaqMan reagents according to established protocols.
In general terms: In qPCR the cycle at which signal appears reflects the starting amount.

In another series the test system is TS mRNA. Put plainly: RT-qPCR of TS mRNA in A549 cells after OLIGO transfection. The following applies: 20 nM OLIGO, 24 hours post-transfection; FIG. 16. As for the experimental part: as §1
Another series deals with CAPAN-1 cells. As to the kind of experiment: Cell proliferation assay, ASO and/or drug (cell counting). Particulars: single olaparib treatment, 96 hours, vs vehicle; FIG. 27C. As for the experimental part: (§2) A: BRCA2-wild type SKOV-3 cells (black bars), […] MCF-7 cells (white bars), and BRCA2-mutated CAPAN-1 cells (grey bars) were treated simultaneously but separately with BRCA2 ASO (20 nM). Due to differing growth medium requirements and to avoid fluorescent label-induced changes in drug sensitivity, cells were not co-cultured. They were treated independently, at the same time with the same materials. Ninety-six hours post-transfection, cells were counted and proliferation determined (% of proliferation after control ASO treatment).
(§3) C: SKOV-3, MCF-7 and CAPAN-1 cells were treated with two different concentrations of olaparib for 96 hours. After drug treatment they were counted and proliferation was determined as a percent of that of vehicle-treated cells.
Four hours post-transfection, cells were seeded into 6 well dishes in appropriate experimental groups. Twenty-four hours post transfection, cells were treated with olaparib (Selleckchem) at three concentrations. Ninety-six hours post transfection, cells were collected and counted (Coulter Particle Counter). Proliferation was determined based on initial cell density and calculated as a percentage of ASO+vehicle treated cells.

The test system of series [2] is mixed cell population SKOV-3^shBRCA2:SKOV-3^shControl 3:1. Put plainly: Co-culture model of BRCA2 heterogeneity, proliferation. The following applies: 2.5 μM, FIG. 29A. The procedure:
(§4) A: SKOV-3^shBRCA2 cells (low BRCA2) were mixed with SKOV-3^shControl cells (high BRCA2) at a 3:1 ratio, resulting in a primarily HRR-deficient mixed cell population. Parental and mixed populations were treated for the first time with olaparib (1° olaparib, 2.5 μM) or vehicle. Cells were re-plated at equal density 96 hours post-treatment. Parental and mixed populations were then treated a second time with olaparib (2° olaparib, 2.5 μM) or control vehicle. Ninety-six hours post-treatment, proliferation for all groups was determined based on cell counts and seeding density following 1° olaparib or vehicle treatment. White bars: 2° olaparib. Black bars: no 2° olaparib.
B: SKOV-3^shBRCA2 cells (low BRCA2), SKOV-3^shControl cells (high BRCA2), and a mixed cell population (3:1, low BRCA2:high BRCA2) were transfected with control ASO or BRCA2 ASO followed by treatment with vehicle or olaparib (2.5 μM). Proliferation (percent of control ASO-treated cells) was determined 96 hours post-transfection. […]
(§5) To mimic a heterogeneous tumor cell population that is predominantly HRR-deficient, we co-cultured SKOV-3^shBRCA2 (low BRCA2) and SKOV-3^shcontrol (high BRCA2) in a 3:1 ratio. The mixed cell population, along with unmixed SKOV-3^shBRCA2 and SKOV-3^shcontrol populations, was treated with olaparib (1° Olaparib), then counted, re-seeded and treated with olaparib a second time (2° Olaparib) (FIG. 32).

Another series concerns MCF-7 cells. Put plainly: Cell proliferation assay, ASO and/or olaparib (cell counting). Particulars: single olaparib treatment, 96 hours, vs vehicle; FIG. 27C. As for the experimental part: as §2, §3
FIG. 28 illustrates combined BRCA2 ASO and olaparib treatment decreases the proliferation of both HRR-deficient and HRR-proficient cells. […] Proliferation was determined using cell counting 96 hours post-transfection.
Four hours post-transfection, cells were seeded into 6 well dishes in appropriate experimental groups. […] Ninety-six hours post transfection, cells were collected and counted (Coulter Particle Counter). Proliferation was determined based on initial cell density and calculated as a percentage of ASO+vehicle treated cells.

Series [3] relates to SKOV-3^shBRCA2 cells (low BRCA2). As to the kind of experiment: Co-culture model, unmixed population, proliferation. The following applies: olaparib 2.5 μM; FIG. 29A. The procedure: as §4, §5
Series [4] deals with A549b cells. Put plainly: cells. Particulars: Homo sapiens, curves extrapolated, unit inferred, read-out: concentration of olaparib required to inhibit proliferation of A549b cells by 50% (IC50). As for the experimental part:
OLIGOs were introduced into cells with the use of Lipofectamine 2000 (LFA2K) (Invitrogen, Burlington, Ontario, Canada). OLIGOs were mixed with LFA2K at a ratio of 0.2 μg/ml per 10 nM OLIGO. The mixture was prepared at 11× the final concentration to which cells were exposed, so that 200 μL was added to 2 mL of medium in which cells were plated. After incubating at room temperature for 20 minutes, according to manufacturer's instructions, the OLIGOs were added to the cell medium. The OLIGO/LFA2K mix was then incubated (37° C.) on the cells for 4 hours, after which a second volume of medium was added. Cells were then incubated for 20 hours. Following this incubation, the OLIGO-containing medium was replaced with OLIGO-free medium.
For cells treated with the drug olaparib, for the purposes of determining whether inhibitory activity was enhanced by the OLIGO pretreatment, olaparib was added at this time, in concentrations of from 0.01 μM to 3 μM. At this point, replicate flasks from the OLIGO-treatment were used to enumerate cell content, as this varied among treatments over the initial 24-hour exposure. This was done so that the effect of treatment with olaparib could be ascertained based on the cell population that was present at the time of initiation of exposure to olaparib. Exposure to the olaparib was initiated by addition of 0.2-volume of a preparation of the drug, at 6× final concentration in growth medium, to the fresh drug-free medium on the cells (1 ml of drug into 5 ml of medium). Following a further 4-day incubation, the proliferation of the treated cells (fold-increase in cell number) was calculated as a percentage of that of control cells. Cell numbers were enumerated on an electronic particle counter (Beckman Coulter, Mississauga, ON). As indicated in Example 1, for the purpose of determining the anti-proliferative effect of antisense OLIGOs alone, the proliferation of cells treated with antisense OLIGOs was calculated as a percent of that of cells treated with an equivalent concentration of non-complementary control OLIGO (in this case OLIGO 32). However, for the purpose of determining the anti-proliferative effect of olaparib against antisense or non-complementary (control) OLIGO-treated cells, the proliferation was calculated as a percent of cells treated with the respective OLIGO.
These experiments were carried out essentially as described in Example 3, with the following changes. The drug tested was cisplatin instead of olaparib, and cisplatin was tested in concentrations ranging from 0.5 μM to 2 μM.
These experiments were carried out essentially as described in Example 3, with the following changes. The drug tested was melphalan in concentrations ranging from 2 μM to 10 μM.
These experiments were carried out essentially as described in Example 3, with the following changes. The drug tested was carboplatin at concentrations ranging from 5 μM to 40 μM.
These experiments were carried out essentially as described in Example 3, with the following changes. The drug tested was oxaliplatin was tested in concentrations ranging from 0.2 μM to 2.5 μM.
Cisplatin was added to the final concentration indicated, and as described in Example 3. Cells were incubated for 4 days, at which time cell number was counted. Proliferation was calculated as a percent of siRNA-treated, non-cisplatin-treated controls.

In the next series the test system is SKOV-3 cells. As to the kind of experiment: Cell proliferation assay, ASO transfection and/or drug (cell counting). Particulars: single olaparib treatment, 96 hours; FIG. 27C. As for the experimental part: FIG. 24 illustrates that BRCA2 inhibition sensitizes ovarian cancer and breast cancer cell lines to olaparib treatment. SKOV-3 (A) and CaOV3 (B) cells were transfected with control ASO (•) or BRCA2 ASO (∘) and then treated with three different concentrations of olaparib. Proliferation was determined by cell counting 96 hours post-transfection (*p<0.05). C: BRCA2 mRNA levels were measured by qPCR 24 hours following BRCA2 ASO transfection in SKOV-3, CaOV3, 211 H and H2052 cell lines.
E: SKOV-3 cells were transfected with control or BRCA2 ASO and then treated with olaparib 24 hours post transfection. Ninety-six hours post transfection, cells were counted, plated, and re-transfected with control ASO or BRCA2 ASO and re-treated with olaparib. Cell counts were performed 96 hours post transfection (*p<0.05). […]
A: BRCA2-wild type SKOV-3 cells (black bars), […] MCF-7 cells (white bars), and BRCA2-mutated CAPAN-1 cells (grey bars) were treated simultaneously but separately with BRCA2 ASO (20 nM). […] Ninety-six hours post-transfection, cells were counted and proliferation determined (% of proliferation after control ASO treatment).
C: SKOV-3, MCF-7 and CAPAN-1 cells were treated with two different concentrations of olaparib for 96 hours. After drug treatment they were counted and proliferation was determined as a percent of that of vehicle-treated cells. […]

For 5′-UUAUCCAGGACAUCACUGC-3′ [RADb], the “inhibited proliferation of A549b cells” value in the series on A549b cells [1] (siRNA at 2 nM, FIG. 21) was “over 50%”.

For “5′-gccaguGGCAACATccuuaa-3′ (antisense GCCAGUGGCAACATCCUUAA; sugars from the 5' end m6 d8 m6, all phosphorothioate, methylation of C not given here) [OLIGO 83]”, in the series with BRCA2 mRNA, the “effect on BRCA2 mRNA level” value is on record as “no significant effect on BRCA2 mRNA”. For the same compound, in the series on TS mRNA, the “effect on TS mRNA level” value is “reduction in TS mRNA”. In addition, the relative proliferation result in the series on A549b cells [1] (20 nM OLIGO 83, vs OLIGO 491S) was “approximately 20%”.

“5′-ugcccgATACACAAacgcug -3′ (UGCCCGATACACAAACGCUG; gapmer, lower-case wings modified, type not given here) [BR3]”: in the series with A549b cells [1] (10 nM of BR3, vs equivalent concentration of OLIGO 491S), the relative proliferation result was “approximately 85%”. Further, the “anti-proliferative effect as single agent” value in the series with A549b cells [1] (A549/A549b cells, 4 h transfection, counted after 4 d, vs non-targeting control OLIGO) is “inhibit proliferation of human non-small cell lung cancer A549 cells in a concentration-dependent manner; also recorded: antiproliferative on its own”.

As to `O=C(c1cc(Cc2n[nH]c(=O)c3ccccc23)ccc1F)N1CCN(C(=O)C2CC2)CC1` [olaparib, reference compound], the results for the decreased the proliferation in the series on CAPAN-1 cells and with MCF-7 cells were 94%±4.6% and 39%±6.8%, respectively. The “response to initial olaparib treatment” value in series [2] (1° olaparib) is recorded as “sensitive to initial treatment with olaparib”. In [2] (2° olaparib), the “response to second olaparib treatment” value was “completely unresponsive to a second treatment”. The “response to olaparib after two treatments” value in [3] is given as “remained sensitive to olaparib even after two treatments”. The IC50 is roughly 5 µM in the series on A549b cells [4] (in the absence of BR1 (control OLIGO 32)) and roughly 0.05 µM in the series with A549b cells [4] (in the presence of BR1 pretreatment). Besides, the “effect of olaparib on proliferation” value in the series with SKOV-3 cells is given as “no effect on SKOV-3 proliferation”.
